Measured values taken from US20140120083A1, “TREATMENT OF CANCERS USING PI3 KINASE ISOFORM MODULATORS” (INFINITY PHARMACEUTICALS, INC., priority 2012, published 2014).

How the values were obtained:
Format in all cases: biochemical
PI3K γ = molecular target: T1, PI3K γ (Homo sapiens, UniProt P48736); assay: In vitro IC50, PI3K γ
T1 construct: purchased Sigma
Text: (§1) An exemplary system is PI 3-Kinase (human) HTRF™ Assay from Upstate.

PI3K α = molecular target: T2, PI3K α (Homo sapiens, UniProt P42336); assay: In vitro IC50, PI3K α
T2 construct: purchased Upstate
T2 sequence (P42336 whole entry): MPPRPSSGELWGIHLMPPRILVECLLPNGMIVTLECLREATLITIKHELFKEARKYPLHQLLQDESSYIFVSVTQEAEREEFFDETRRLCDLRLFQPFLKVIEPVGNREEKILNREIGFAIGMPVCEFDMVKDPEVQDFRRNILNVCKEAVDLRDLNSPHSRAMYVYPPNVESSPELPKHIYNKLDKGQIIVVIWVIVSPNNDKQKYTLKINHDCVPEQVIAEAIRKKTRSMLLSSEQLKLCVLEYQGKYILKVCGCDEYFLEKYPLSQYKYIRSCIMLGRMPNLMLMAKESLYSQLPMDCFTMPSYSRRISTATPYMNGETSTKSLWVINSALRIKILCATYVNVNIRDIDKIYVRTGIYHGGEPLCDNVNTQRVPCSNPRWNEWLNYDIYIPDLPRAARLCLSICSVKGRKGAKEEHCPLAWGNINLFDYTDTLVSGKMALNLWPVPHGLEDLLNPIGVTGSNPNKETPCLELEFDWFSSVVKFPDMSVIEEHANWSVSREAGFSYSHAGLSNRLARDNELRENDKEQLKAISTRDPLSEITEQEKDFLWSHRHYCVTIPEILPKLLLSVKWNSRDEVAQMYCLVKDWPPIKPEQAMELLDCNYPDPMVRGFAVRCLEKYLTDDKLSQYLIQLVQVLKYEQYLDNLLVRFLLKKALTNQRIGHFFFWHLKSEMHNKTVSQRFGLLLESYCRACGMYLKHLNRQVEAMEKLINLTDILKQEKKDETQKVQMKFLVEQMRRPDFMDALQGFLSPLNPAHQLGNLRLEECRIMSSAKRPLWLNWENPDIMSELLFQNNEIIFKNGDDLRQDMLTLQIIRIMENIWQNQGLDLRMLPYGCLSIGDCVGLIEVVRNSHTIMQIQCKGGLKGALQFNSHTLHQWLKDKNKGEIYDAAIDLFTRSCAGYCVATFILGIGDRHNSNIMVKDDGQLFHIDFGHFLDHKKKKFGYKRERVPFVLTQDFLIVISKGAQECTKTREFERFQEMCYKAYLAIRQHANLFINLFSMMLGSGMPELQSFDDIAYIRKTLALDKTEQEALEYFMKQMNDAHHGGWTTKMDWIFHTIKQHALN
T2 sequence (P27986 whole entry partner): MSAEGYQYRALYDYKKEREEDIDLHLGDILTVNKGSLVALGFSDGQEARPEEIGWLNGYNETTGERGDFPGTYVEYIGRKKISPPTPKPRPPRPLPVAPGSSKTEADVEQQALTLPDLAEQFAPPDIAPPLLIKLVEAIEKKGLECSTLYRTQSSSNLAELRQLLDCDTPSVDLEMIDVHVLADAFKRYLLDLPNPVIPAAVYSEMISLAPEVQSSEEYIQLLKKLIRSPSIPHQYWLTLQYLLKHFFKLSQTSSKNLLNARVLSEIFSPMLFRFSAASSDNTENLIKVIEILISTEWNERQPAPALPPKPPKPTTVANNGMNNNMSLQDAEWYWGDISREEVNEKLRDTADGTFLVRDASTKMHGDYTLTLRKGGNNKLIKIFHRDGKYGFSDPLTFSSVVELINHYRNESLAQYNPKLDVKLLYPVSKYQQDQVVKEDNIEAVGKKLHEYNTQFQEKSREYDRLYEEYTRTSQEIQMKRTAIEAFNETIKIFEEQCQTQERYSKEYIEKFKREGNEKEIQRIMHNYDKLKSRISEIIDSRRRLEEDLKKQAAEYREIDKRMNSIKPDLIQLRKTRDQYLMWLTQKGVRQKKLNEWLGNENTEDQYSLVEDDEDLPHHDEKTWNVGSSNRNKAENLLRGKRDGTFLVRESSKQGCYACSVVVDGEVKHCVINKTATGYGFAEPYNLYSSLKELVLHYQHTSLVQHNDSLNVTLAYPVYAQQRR
Text: as §1

PI3K β = PI3K β (Homo sapiens, UniProt P42338); assay: In vitro IC50, PI3K β
Sequence of PI3K β (P42338 whole entry): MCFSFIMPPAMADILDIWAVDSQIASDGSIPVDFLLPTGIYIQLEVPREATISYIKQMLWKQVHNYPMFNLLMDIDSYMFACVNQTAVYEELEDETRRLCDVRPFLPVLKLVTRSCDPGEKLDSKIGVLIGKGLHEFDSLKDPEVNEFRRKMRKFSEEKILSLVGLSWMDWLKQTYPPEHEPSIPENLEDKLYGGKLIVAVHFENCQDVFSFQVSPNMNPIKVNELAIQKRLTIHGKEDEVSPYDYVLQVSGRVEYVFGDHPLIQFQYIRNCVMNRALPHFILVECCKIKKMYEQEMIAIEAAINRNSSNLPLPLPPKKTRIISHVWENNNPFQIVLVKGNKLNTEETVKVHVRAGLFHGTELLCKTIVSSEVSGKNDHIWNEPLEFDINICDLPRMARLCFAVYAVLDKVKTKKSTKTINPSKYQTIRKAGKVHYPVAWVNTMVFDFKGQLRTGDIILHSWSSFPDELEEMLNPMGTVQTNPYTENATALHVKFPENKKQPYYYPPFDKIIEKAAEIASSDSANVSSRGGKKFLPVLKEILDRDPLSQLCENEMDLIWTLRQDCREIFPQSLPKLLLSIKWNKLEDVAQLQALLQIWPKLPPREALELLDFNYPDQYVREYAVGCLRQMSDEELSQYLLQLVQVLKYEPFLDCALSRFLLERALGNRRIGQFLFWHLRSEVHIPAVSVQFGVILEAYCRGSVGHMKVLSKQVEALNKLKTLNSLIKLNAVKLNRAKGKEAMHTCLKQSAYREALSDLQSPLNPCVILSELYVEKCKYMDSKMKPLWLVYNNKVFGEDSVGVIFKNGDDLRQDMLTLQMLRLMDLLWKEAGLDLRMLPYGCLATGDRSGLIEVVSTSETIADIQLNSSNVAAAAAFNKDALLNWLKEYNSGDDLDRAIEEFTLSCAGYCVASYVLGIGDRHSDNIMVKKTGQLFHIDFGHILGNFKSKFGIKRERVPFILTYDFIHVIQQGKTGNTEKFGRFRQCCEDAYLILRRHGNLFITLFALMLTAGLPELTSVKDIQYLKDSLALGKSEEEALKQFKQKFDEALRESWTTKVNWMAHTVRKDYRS
Text: as §1

PI3K δ = PI3K δ (Homo sapiens, UniProt O00329); assay: In vitro IC50, PI3K δ; design: purchased Upstate
Sequence of PI3K δ (O00329 whole entry): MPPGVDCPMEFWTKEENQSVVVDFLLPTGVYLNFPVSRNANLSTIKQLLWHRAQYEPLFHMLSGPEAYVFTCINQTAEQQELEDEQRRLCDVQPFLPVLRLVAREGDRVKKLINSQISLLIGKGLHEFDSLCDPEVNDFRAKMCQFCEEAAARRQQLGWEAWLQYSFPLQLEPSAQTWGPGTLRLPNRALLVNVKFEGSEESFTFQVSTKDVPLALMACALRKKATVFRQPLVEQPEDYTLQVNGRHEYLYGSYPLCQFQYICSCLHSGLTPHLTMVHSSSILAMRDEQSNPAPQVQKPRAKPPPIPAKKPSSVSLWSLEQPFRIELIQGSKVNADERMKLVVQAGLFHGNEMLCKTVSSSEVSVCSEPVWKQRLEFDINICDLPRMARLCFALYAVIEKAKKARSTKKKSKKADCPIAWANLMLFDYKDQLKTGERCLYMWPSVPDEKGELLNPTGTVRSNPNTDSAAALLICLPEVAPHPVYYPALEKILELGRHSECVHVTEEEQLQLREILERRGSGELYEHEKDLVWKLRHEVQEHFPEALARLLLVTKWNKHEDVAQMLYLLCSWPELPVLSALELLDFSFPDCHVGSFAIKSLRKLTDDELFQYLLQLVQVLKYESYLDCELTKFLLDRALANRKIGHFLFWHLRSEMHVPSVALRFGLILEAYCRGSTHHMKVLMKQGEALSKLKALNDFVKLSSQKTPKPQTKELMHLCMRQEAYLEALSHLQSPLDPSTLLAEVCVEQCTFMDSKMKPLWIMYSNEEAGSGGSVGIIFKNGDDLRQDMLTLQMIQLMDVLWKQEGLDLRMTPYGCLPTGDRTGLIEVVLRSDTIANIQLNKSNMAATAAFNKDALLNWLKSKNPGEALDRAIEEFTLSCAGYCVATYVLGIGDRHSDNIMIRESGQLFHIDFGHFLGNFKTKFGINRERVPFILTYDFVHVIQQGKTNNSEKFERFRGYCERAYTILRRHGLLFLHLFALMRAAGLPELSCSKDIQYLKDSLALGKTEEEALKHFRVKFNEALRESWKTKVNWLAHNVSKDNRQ
Sequence of PI3K δ (P27986 whole entry partner): as the sequence (P27986 whole entry partner) above
Text: as §1

T1 sequence (P48736 whole entry): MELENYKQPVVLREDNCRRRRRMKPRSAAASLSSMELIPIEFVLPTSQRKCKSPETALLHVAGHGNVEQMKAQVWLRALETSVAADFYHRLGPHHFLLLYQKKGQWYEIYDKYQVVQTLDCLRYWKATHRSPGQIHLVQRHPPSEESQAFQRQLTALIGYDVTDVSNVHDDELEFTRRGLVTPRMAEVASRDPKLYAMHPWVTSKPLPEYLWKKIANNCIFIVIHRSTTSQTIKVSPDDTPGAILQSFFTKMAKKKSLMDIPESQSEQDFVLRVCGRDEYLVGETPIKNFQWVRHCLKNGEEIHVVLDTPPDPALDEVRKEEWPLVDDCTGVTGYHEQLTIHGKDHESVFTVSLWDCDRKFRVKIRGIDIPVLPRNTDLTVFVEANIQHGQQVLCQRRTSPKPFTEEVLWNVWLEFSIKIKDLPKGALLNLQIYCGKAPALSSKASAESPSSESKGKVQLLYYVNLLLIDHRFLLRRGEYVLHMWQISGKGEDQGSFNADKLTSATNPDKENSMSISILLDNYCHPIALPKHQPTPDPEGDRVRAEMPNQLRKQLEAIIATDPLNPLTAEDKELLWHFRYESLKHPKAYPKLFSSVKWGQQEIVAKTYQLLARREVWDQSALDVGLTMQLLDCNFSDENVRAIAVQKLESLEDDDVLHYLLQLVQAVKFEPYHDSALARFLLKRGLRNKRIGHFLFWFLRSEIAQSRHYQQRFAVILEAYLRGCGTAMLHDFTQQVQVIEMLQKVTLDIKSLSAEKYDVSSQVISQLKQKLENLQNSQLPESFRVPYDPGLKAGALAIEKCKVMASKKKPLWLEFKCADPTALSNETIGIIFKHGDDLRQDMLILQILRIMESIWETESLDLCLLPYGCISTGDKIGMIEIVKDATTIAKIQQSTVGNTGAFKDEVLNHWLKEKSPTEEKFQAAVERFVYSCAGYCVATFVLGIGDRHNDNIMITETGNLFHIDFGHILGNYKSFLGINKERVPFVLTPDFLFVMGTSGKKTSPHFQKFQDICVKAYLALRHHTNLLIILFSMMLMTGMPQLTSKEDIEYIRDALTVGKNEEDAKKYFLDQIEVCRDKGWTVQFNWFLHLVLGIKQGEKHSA

SMILES | IC50 (PI3K γ) [nM] | IC50 (PI3K α) [nM] | IC50 (PI3K β) [nM] | IC50 (PI3K δ) [nM]
Cc1ccccc1-n1c(Cn2nc(-c3cc(O)cc(F)c3)c3c(N)ncnc32)cc2cccc(F)c2c1=O [Compound 55] | < 1000 | > 10000 | < 10000 | < 100
Cc1cccc2cc(Cn3nc(-c4cn[nH]c4)c4c(N)ncnc43)n(-c3ccccc3F)c(=O)c12 [Compound 161] | < 1000 | > 10000 | < 10000 | < 100
Cc1ccccc1-n1c(Cn2nc(C#C[C@@H](C)O)c3c(N)ncnc32)cc2cccc(F)c2c1=O [Compound 43] | > 10000 | > 10000 | > 10000 | < 1000
Cc1ccccc1-n1c(Cn2nc(-c3cccc(O)c3)c3c(N)ncnc32)cc2cccc(F)c2c1=O [Compound 59] | < 100 | > 10000 | > 10000 | < 100
Nc1ncnc2c1c(-c1cc(O)cc(F)c1)nn2Cc1cc2cccc(Cl)c2c(=O)n1C1CC1 [Compound 142] | < 100 | < 100 | < 100 | < 100
Cc1cccc2cc(Cn3nc(C(F)F)c4c(N)ncnc43)n(-c3ccccc3)c(=O)c12 [Compound 308] | < 1000 | > 10000 | < 10000 | < 100
Cc1ccccc1-n1c(Cn2nc(-c3ccc4nc(N)oc4c3)c3c(N)ncnc32)cc2cccc(C)c2c1=O [Compound 243] | < 100 | < 10000 | < 10000 | < 100
Cc1cccc2cc(Cn3nc(I)c4c(N)ncnc43)n(-c3ccccc3O)c(=O)c12 [Compound 79] | < 100 | > 10000 | > 10000 | < 100
Cc1cccc2cc([C@H](C)Nc3ncnc4[nH]cc(Br)c34)n(-c3ccccc3)c(=O)c12 [Compound 257] | < 100 | < 1000 | < 100 | < 100
Cc1cccc2cc(Cn3nc(-c4cc(O)cc(F)c4)c4c(N)ncnc43)n(-c3ccccc3C(C)C)c(=O)c12 [Compound 95] | < 100 | < 1000 | < 1000 | < 100
Cc1ccccc1-n1c(Cn2nc(-c3ccc4nc(N)[nH]c4c3)c3c(N)ncnc32)cc2cccc(C)c2c1=O [Compound 295] | < 100 | < 10000 | < 10000 | < 100
Cc1cccc2cc(Cn3nc(C#C[C@@H](C)O)c4c(N)ncnc43)n(-c3ccccc3C(C)C)c(=O)c12 [Compound 83] | < 100 | > 10000 | < 10000 | < 100
Cc1cccc2cc(Cn3nc(-c4cccc(O)c4)c4c(N)ncnc43)n(C3CC3)c(=O)c12 [Compound 102] | < 100 | < 1000 | < 1000 | < 100
CCN(Cc1cc2cccc(C)c2c(=O)n1-c1ccccc1C)c1ncnc2[nH]cnc12 [Compound 186] | < 10000 | > 10000 | > 10000 | < 10000
Cc1ccccc1-n1c(Cn2nc(-c3ccc(F)c(O)c3)c3c(N)ncnc32)cc2cccc(F)c2c1=O [Compound 56] | < 100 | > 10000 | > 10000 | < 100
CC(=O)Nc1nc2cc(-c3nn(Cc4cc5cccc(C)c5c(=O)n4-c4ccccc4C)c4ncnc(N)c34)ccc2o1 [Compound 251] | < 100 | < 10000 | < 1000 | < 100
Cc1ccccc1-n1c(Cn2nc(C#N)c3c(N)ncnc32)cc2cccc(C)c2c1=O [Compound 170] | < 10000 | > 10000 | > 10000 | < 100

SMILES | IC50 (PI3K γ) [nM] | IC50 (PI3K α) [nM] | IC50 (PI3K β) [nM] | IC50 (PI3K δ) [nM]
Cc1cccc2cc(C(C)Nc3ncnc4[nH]cnc34)n(-c3ccccc3)c(=O)c12 (stereo not shown) [Compound 210] | < 100 | < 10000 | < 10000 | < 100
CCc1ccccc1-n1c(Cn2nc(C#C[C@@H](C)O)c3c(N)ncnc32)cc2cccc(C)c2c1=O [Compound 99] | < 1000 | > 10000 | < 10000 | < 100
Cc1cccc2cc(Cn3nc(-c4cn[nH]c4)c4c(N)ncnc43)n(-c3ccccc3)c(=O)c12 [Compound 206] | < 1000 | < 10000 | < 10000 | < 100
CCC(Nc1ncnc2[nH]cnc12)c1cc2cccc(C)c2c(=O)n1C(C)C (stereo not shown) [Compound 219] | < 10000 | > 10000 | < 10000 | < 100
Cc1cccc2cc([C@H](C)Nc3nc(N)nc4[nH]cnc34)n(-c3ccccc3)c(=O)c12 [Compound 323] | < 100 | < 1000 | < 100 | < 100
Cc1cccc2cc(Cn3nc(I)c4c(N)ncnc43)n(C3CCCC3)c(=O)c12 [Compound 57] | < 10000 | > 10000 | > 10000 | < 1000
Cc1cccc(C)c1-n1c(CNc2ncnc3[nH]cnc23)cc2cccc(C)c2c1=O [Compound 218] | < 1000 | > 10000 | > 10000 | < 100
CC(=O)Nc1nc2cc(-c3nn(Cc4cc5cccc(C)c5c(=O)n4-c4ccccc4)c4ncnc(N)c34)ccc2o1 [Compound 253] | < 100 | < 10000 | < 100 | < 100
Cc1cccc2cc(Cn3nc(C#C[C@@H](C)O)c4c(N)ncnc43)n(-c3ccccc3Cl)c(=O)c12 [Compound 98] | < 1000 | > 10000 | > 10000 | < 100
Cc1cccc2cc([C@H](C)Nc3ncnc4[nH]cc(Cl)c34)n(-c3ccccc3)c(=O)c12 [Compound 262] | < 100 | < 1000 | < 100 | < 100
Cc1cccc2cc([C@@H](C)Nc3ncnc4[nH]cnc34)n(C3CCC3)c(=O)c12 [Compound 197] | < 10000 | > 10000 | > 10000 | > 10000
Cc1cccc2cc([C@H](C)Nc3ncnc4[nH]cnc34)n(-c3cccc(F)c3)c(=O)c12 [Compound 290] | < 100 | > 10000 | < 1000 | < 100
CC(=O)Nc1nc2ccc(-c3nn(Cc4cc5cccc(C)c5c(=O)n4-c4ccccc4)c4ncnc(N)c34)cc2o1 [Compound 269] | < 1000 | < 10000 | < 10000 | < 1000
Cc1cccc2cc([C@H](C)Nc3nc(N)ncc3F)n(C3CC3)c(=O)c12 [Compound 281] | > 10000 | > 10000 | < 10000 | < 10000
Cc1cccc2cc(Cn3nc(-c4ccc5nc(N)sc5c4)c4c(N)ncnc43)n(-c3ccccc3)c(=O)c12 [Compound 252] | < 100 | < 100 | < 1000 | < 100
Cc1cccc2cc(Cn3nc(-c4ccc5oc(N)nc5c4)c4c(N)ncnc43)n(C3CC3)c(=O)c12 [Compound 201] | < 100 | < 100 | < 1000 | < 100
Cc1cccc2cc(Cn3nc(-c4ccc5sc(N)nc5c4)c4c(N)ncnc43)n(-c3ccccc3)c(=O)c12 [Compound 277] | < 100 | < 1000 | < 1000 | < 100
